Data from patent US11384055B2 (BIOMARIN PHARMACEUTICAL INC., priority 2017, dated 2022).

target: T1, Human GO (Homo sapiens, UniProt Q9UJM8); experiment: GO enzymatic assay (coupled fluorescence/HRP assay, glycolate substrate); format: biochemical; details: Table 4; read-out: Range (range of IC50 values calculated from the enzymatic assays)
T1 construct: purchased Novus Biologicals NBP1-72412
T1 sequence (Q9UJM8 1-370): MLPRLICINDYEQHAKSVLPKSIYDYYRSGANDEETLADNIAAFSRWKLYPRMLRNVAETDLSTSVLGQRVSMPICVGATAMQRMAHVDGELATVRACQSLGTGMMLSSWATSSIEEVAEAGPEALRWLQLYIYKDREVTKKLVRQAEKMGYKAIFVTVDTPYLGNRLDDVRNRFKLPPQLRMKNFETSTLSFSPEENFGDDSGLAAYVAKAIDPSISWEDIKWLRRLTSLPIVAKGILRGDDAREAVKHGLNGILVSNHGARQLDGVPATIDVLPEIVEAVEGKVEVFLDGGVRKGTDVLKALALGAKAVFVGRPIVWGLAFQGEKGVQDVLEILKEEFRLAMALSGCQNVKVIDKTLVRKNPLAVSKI
Outline: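 Coupled HRP/fluorescence read-out of glycolate oxidation by human GO in 50 mM potassium phosphate buffer (pH 7). Inhibitors added across a concentration range.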

SMILES	IC50
C[C@]1(c2ccc(OC(F)(F)F)cc2)CC[C@H](Oc2nn[nH]c2C(=O)O)CC1 [Compound 443, 4-(((1r,4r)-4-methyl-4-(4-(trifluoromethoxy)phenyl)cyclohexyl)oxy)-1H-1,2,3-triazole-5-carboxylic acid]	< 0.1 µM
C[C@]1(c2ccc(OC(F)(F)F)cc2)CC[C@@H](Oc2nn[nH]c2C(=O)O)CC1 [Compound 444, 4-(((1s,4s)-4-methyl-4-(4-(trifluoromethoxy)phenyl)cyclohexyl)oxy)-1H-1,2,3-triazole-5-carboxylic acid]	< 0.1 µM
O=C(O)c1[nH]nnc1O[C@H]1CC[C@H](c2ccc(OC3CC3)cc2)CC1 [Example 446, 4-(((trans)-4-(4-cyclopropoxyphenyl)cyclohexyl)oxy)-1H-1,2,3-triazole-5-carboxylic acid]	< 0.1 µM
O=C(O)c1[nH]nnc1O[C@H]1CC[C@H](c2ccc(F)cc2)CC1 [Example 447, 4-(((trans)-4-(4-fluorophenyl)cyclohexyl)oxy)-1H-1,2,3-triazole-5-carboxylic acid]	< 0.1 µM
O=C(O)c1[nH]nnc1Oc1ccc(Cl)c(OC2CCC2)c1 [Example 448, 4-(4-chloro-3-cyclobutoxyphenoxy)-1H-1,2,3-triazole-5-carboxylic acid]	< 0.1 µM
O=C(O)c1[nH]nnc1OC1CC(c2ccc(OC(F)(F)F)cc2)C1 (stereo not shown) [Example 449, 4-(3-(4-(trifluoromethoxy)phenyl)cyclobutoxy)-1H-1,2,3-triazole-5-carboxylic acid]	< 0.1 µM
O=C(O)c1[nH]nnc1Oc1ccc(-c2ccc(-n3cccn3)cc2)cc1 [Example 450, 4-((4′-(1H-pyrazol-1-yl)-[1,1′-biphenyl]-4-yl)oxy)-1H-1,2,3-triazole-5-carboxylic acid 2,2,2-trifluoroacetate]	< 0.1 µM
O=C(O)c1[nH]nnc1N[C@H]1CC[C@H](c2ccc(OC(F)(F)F)cc2)CC1 [Example 451, 4-(((trans)-4-(4-(trifluoromethoxy)phenyl)cyclohexyl)amino)-1H-1,2,3-triazole-5-carboxylic acid]	< 0.1 µM
O=C(O)c1[nH]nnc1N[C@H]1CC[C@@H](c2ccc(OC(F)(F)F)cc2)CC1 [Example 452, 4-(((cis)-4-(4-(trifluoromethoxy)phenyl)cyclohexyl)amino)-1H-1,2,3-triazole-5-carboxylic acid]	< 0.1 µM
O=C(O)c1[nH]nnc1OC1CCC(O)(c2ccc(OC(F)(F)F)cc2)CC1 (stereo not shown) [Example 453, 4-((4-hydroxy-4-(4-(trifluoromethoxy)phenyl)cyclohexyl)oxy)-1H-1,2,3-triazole-5-carboxylic acid]	0.1 to 1 µM
O=C(O)c1[nH]nnc1OC1CC=C(c2ccc(OC(F)(F)F)cc2)CC1 (stereo not shown) [Example 454, 4-((4′-(trifluoromethoxy)-2,3,4,5-tetrahydro-[1,1′-biphenyl]-4-yl)oxy)-1H-1,2,3-triazole-5-carboxylic acid]	< 0.1 µM
O=C(O)c1[nH]nnc1OC1C[C@@H]2CC(c3ccc(OC(F)(F)F)cc3)C[C@@H]2C1 (stereo partly drawn) [Example 455, 4-(((cis-3a,6a)-5-(4-(trifluoromethoxy)phenyl)octahydropentalen-2-yl)oxy)-1H-1,2,3-triazole-5-carboxylic acid]	< 0.1 µM
O=C(O)c1[nH]nnc1CO[C@H]1CC[C@H](c2ccc(OC(F)(F)F)cc2)CC1 [Example 456, 4-((((trans)-4-(4-(trifluoromethoxy)phenyl)cyclohexyl)oxy)methyl)-1H-1,2,3-triazole-5-carboxylic acid]	0.1 to 1 µM
NS(=O)(=O)c1ccc([C@H]2CC[C@H](Oc3nn[nH]c3C(=O)O)CC2)cc1 [Example 457, 4-(((trans)-4-(4-sulfamoylphenyl)cyclohexyl)oxy)-1H-1,2,3-triazole-5-carboxylic acid]	< 0.1 µM
O=C(O)c1[nH]nnc1S[C@H]1CC[C@H](c2ccc(-n3cccn3)cc2)CC1 [Example 459, 4-(((trans)-4-(4-(1H-pyrazol-1-yl)phenyl)cyclohexyl)thio)-1H-1,2,3-triazole-5-carboxylic acid 2,2,2-trifluoroacetate]	< 0.1 µM
O=C(O)c1[nH]nnc1O[C@H]1CC[C@H](c2ccc(OCC3CCCCC3)cc2)CC1 [Example 460, 4-(((trans)-4-(4-(cyclohexylmethoxy)phenyl)cyclohexyl)oxy)-1H-1,2,3-triazole-5-carboxylic acid]	< 0.1 µM
O=C(O)c1[nH]nnc1SC1C[C@@H]2CC(c3ccc(OC(F)(F)F)cc3)C[C@@H]2C1 (stereo partly drawn) [Example 461, 4-(((cis-3a,6a)-5-(4-(trifluoromethoxy)phenyl)octahydropentalen-2-yl)thio)-1H-1,2,3-triazole-5-carboxylic acid]	< 0.1 µM
O=C(O)c1[nH]nnc1O[C@H]1CC[C@H](c2ccc(OCCC3CCCCC3)cc2)CC1 [Example 462, 4-(((trans)-4-(4-(2-cyclohexylethoxy)phenyl)cyclohexyl)oxy)-1H-1,2,3-triazole-5-carboxylic acid]	< 0.1 µM
O=C(O)c1[nH]nnc1O[C@H]1CC[C@H](c2ccc(OCCCO)cc2)CC1 [Example 463, 4-(((trans)-4-(4-(3-hydroxypropoxy)phenyl)cyclohexyl)oxy)-1H-1,2,3-triazole-5-carboxylic acid]	< 0.1 µM
CC(C)c1cc(-c2ccc([C@H]3CC[C@H](Oc4nn[nH]c4C(=O)O)CC3)cc2)[nH]n1 [Example 464, 4-(((trans)-4-(4-(3-isopropyl-1H-pyrazol-5-yl)phenyl)cyclohexyl)oxy)-1H-1,2,3-triazole-5-carboxylic acid 2,2,2-trifluoroacetate]	< 0.1 µM
CN(c1nn[nH]c1C(=O)O)[C@H]1CC[C@@H](c2ccc(OC(F)(F)F)cc2)CC1 [Example 465, 4-(methyl((cis)-4-(4-(trifluoromethoxy)phenyl)cyclohexyl)amino)-1H-1,2,3-triazole-5-carboxylic acid]	0.1 to 1 µM
O=C(O)c1[nH]nnc1O[C@H]1CC[C@H](c2ccc(-c3ccn[nH]3)c(CO)c2)CC1 [Example 466, 4-(((trans)-4-(3-(hydroxymethyl)-4-(1H-pyrazol-5-yl)phenyl)cyclohexyl)oxy)-1H-1,2,3-triazole-5-carboxylic acid]	< 0.1 µM
O=C(O)c1[nH]nnc1O[C@H]1CC[C@@H](c2ccc(-c3ccn[nH]3)c(CO)c2)CC1 [Example 467, 4-(((cis)-4-(3-(hydroxymethyl)-4-(1H-pyrazol-5-yl)phenyl)cyclohexyl)oxy)-1H-1,2,3-triazole-5-carboxylic acid 2,2,2-trifluoroacetate]	< 0.1 µM
CN1CCN(c2ccc([C@H]3CC[C@H](Oc4nn[nH]c4C(=O)O)CC3)cc2)CC1 [Example 468, 4-(((trans)-4-(4-(4-methylpiperazin-1-yl)phenyl)cyclohexyl)oxy)-1H-1,2,3-triazole-5-carboxylic acid 2,2,2-trifluoroacetate]	< 0.1 µM
CC(C)(O)Cn1ccc(-c2ccc([C@H]3CC[C@H](Oc4nn[nH]c4C(=O)O)CC3)cc2)n1 [Example 469, 4-(((trans)-4-(4-(1-(2-hydroxy-2-methylpropyl)-1H-pyrazol-3-yl)phenyl)cyclohexyl)oxy)-1H-1,2,3-triazole-5-carboxylic acid 2,2,2-trifluoroacetate]	< 0.1 µM
